Reference: patent US20170291890A1 (Epizyme, Inc., priority 2014, published 2017)

Target: T1, KDM5A (Homo sapiens, UniProt P29375)
T1 construct: C-terminal FLAG-tagged KDM5A^1-1090 was purchased from BPS Biosciences; FLAG (C); purchased BPS Biosciences
T1 sequence (P29375 1-1090): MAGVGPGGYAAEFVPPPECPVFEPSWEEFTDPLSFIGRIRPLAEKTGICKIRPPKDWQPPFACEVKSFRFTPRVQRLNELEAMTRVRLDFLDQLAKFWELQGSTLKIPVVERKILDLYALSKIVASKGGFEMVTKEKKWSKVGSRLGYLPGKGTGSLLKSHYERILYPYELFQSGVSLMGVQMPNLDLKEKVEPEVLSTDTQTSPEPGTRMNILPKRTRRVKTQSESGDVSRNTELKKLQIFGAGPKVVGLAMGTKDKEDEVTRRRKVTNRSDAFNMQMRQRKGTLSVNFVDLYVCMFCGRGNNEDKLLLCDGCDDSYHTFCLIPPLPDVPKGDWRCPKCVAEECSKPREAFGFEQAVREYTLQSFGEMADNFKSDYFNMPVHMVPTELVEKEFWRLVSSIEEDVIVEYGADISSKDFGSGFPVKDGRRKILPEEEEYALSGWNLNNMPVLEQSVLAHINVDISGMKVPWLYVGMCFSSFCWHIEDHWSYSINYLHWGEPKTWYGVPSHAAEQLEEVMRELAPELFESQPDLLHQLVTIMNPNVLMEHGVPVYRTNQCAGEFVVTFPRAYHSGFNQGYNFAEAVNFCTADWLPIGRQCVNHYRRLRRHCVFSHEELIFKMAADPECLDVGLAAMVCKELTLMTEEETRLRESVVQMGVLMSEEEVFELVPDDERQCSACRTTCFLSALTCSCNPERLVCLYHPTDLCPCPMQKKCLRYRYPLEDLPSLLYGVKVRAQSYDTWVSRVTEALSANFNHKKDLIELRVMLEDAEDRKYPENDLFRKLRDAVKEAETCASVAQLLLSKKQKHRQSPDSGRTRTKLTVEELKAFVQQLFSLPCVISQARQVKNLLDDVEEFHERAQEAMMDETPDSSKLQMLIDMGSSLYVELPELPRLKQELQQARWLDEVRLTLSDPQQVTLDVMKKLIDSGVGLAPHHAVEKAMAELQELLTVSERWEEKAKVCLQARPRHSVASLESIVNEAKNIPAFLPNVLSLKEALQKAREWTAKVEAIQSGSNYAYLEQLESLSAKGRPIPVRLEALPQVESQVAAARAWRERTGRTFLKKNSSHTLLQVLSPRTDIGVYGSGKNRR
Test: KDM5A Assay (SAMDI mass spectrometry demethylase assay)
Format: biochemical
Conditions: C-terminal FLAG-tagged KDM5A 1-1090; class symbols; read-out: 5A IC50
Method in brief: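 FLAG-tagged KDM5A 1-1090 (20 nM) preincubated 30 min with compound in pH 8.0 HEPES buffer with ascorbate, Fe(II), TCEP, then reacted 150 min at 25 °C with H3K4me3 peptide (250 nM) and 2-oxoglutarate (15 μM). Formic acid-quenched; SAMDI-MS substrate/product AUC conversion; IC50 from dose-response.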

Row | IC50 [µM] | SMILES
1 | 10 to 100 | Cc1nn(C2CCCN(C)CC2)cc1Nc1cnccc1C(=O)O (centres unmarked) [Compound 111, 3-(3-methyl-1-(1-methylazepan-4-yl)-1H-pyrazol-4-ylamino) isonicotinic acid]
2 | 1 to 10 | Cc1nn(-c2ccccc2C#N)cc1Nc1cnccc1C(=O)O [Compound 70, 3-((1-(2-cyanophenyl)-3-methyl-1H-pyrazol-4-yl)amino) isonicotinic acid]
3 | 0.1 to 1 | Cc1nn(C2CCNCC2)cc1Nc1cnccc1C(=O)O [Compound 69, 3-((3-methyl-1-(piperidin-4-yl)-1H-pyrazol-4-yl)amino) isonicotinic acid]
4 | 0.1 to 1 | O=C(O)c1ccncc1Nc1cc(-c2ccccc2)nn1-c1ccccc1 [Compound 21, 3-((1,3-Diphenyl-1H-pyrazol-5-yl)amino)isonicotinic acid]
5 | 1 to 10 | Cc1c(Nc2cnccc2C(=O)O)cnn1C1CCNCC1 [Compound 68, 3-((5-methyl-1-(piperidin-4-yl)-1H-pyrazol-4-yl)amino)isonicotinic acid]
6 | 1 to 10 | N[C@H]1CC[C@H](n2nc(-c3ccccc3)cc2Nc2cnccc2C(=O)O)CC1 [Compound 38, 3-((1-((trans)-4-aminocyclohexyl)-3-phenyl-1H-pyrazol-5-yl)amino)isonicotinic acid]
7 | 1 to 10 | Cc1c(Nc2cnccc2C(=O)O)cnn1C1CCN(C2CCC2)CC1 [Compound 96]
8 | 1 to 10 | Cn1ncc(-c2ccccc2)c1Nc1cnccc1C(=O)O [Compound 1]
9 | 1 to 10 | Cc1c(Nc2cnccc2C(=O)O)cnn1C1CCN(CC(F)(F)F)CC1 [Compound 100, 3-(5-methyl-1-(1-(2,2,2-tri-fluoro-ethyl)piperidin-4-yl)-1H-pyrazol-4-ylamino)isonicotinic acid]
10 | 0.1 to 1 | Cc1nn(CCN(C)C)cc1Nc1cnccc1C(=O)O [Compound 107, 3-(1-(2-(dimethylamino)ethyl)-3-methyl-1H-pyrazol-4-ylamino) isonicotinic acid]
11 | 1 to 10 | CN(C)CCn1ncc(-c2ccccc2)c1Nc1cnccc1C(=O)O [Compound 65, 3-((1-(2-(dimethylamino)ethyl)-4-phenyl-1H-pyrazol-5-yl)amino)isonicotinic acid]
12 | 0.1 to 1 | O=C(O)c1ccncc1Nc1nn(-c2ccccc2)cc1-c1ccccc1 [Compound 42, 3-((1,4-diphenyl-1H-pyrazol-3-yl)amino)isonicotinic acid]
13 | 0.001 to 0.1 | CN(C)CCCn1cc(-c2ccccc2)c(Nc2cnccc2C(=O)O)n1 [Compound 51, 3-((1-(3-(dimethylamino)propyl)-4-phenyl-1H-pyrazol-3-yl)amino) isonicotinic acid]
14 | 0.001 to 0.1 | Cn1nc(-c2ccccc2)cc1Nc1cnccc1C(=O)O [Compound 6]
15 | 0.1 to 1 | Cn1ncc(-c2ccccc2F)c1Nc1cnccc1C(=O)O [Compound 12, 3-((4-(2-fluorophenyl)-1-methyl-1H-pyrazol-5-yl)amino) isonicotinic acid]
16 | 0.001 to 0.1 | CN(C)CCn1cc(-c2ccccc2)c(Nc2cnccc2C(=O)O)n1 [Compound 64, 3-((1-(2-(dimethylamino)ethyl)-4-phenyl-1H-pyrazol-3-yl)amino)isonicotinic acid]
17 | 1 to 10 | O=C(O)c1ccncc1Nc1cc(-c2ccccc2)nn1-c1ccncc1 [Compound 56, 3-((3-phenyl-1-(pyridin-4-yl)-1H-pyrazol-5-yl)amino) isonicotinic acid]
18 | 10 to 100 | COc1ccc(-n2nc(C)c(Nc3cnccc3C(=O)O)c2C)cc1 [Compound 75, 3-((1-(4-methoxyphenyl)-3,5-dimethyl-1H-pyrazol-4-yl)amino)isonicotinic acid]
19 | 1 to 10 | Cc1c(Nc2cnccc2C(=O)O)cnn1C1CCN(C(=O)c2ccccc2)CC1 [Compound 98, 3-(1-(1-benzoylpiperidin-4-yl)-5-methyl-1H-pyrazol-4-ylamino) isonicotinic acid]
20 | 0.1 to 1 | Cc1nn(C2CCN(C(C)C)CC2)cc1Nc1cnccc1C(=O)O [Compound 102, 3-((1-(1-isopropylpiperidin-4-yl)-3-methyl-1H-pyrazol-4-yl)amino)isonicotinic acid]
